Test system: KRAS patient-derived spheroids with HUVEC/MSC, viability
Assay: Anticancer human tumor 519858-162-T-J1-PDC patient-derived colon adenocarcinoma cell line growth inhibition [KRAS2]
Conditions: for IC50: curve of first compound; for viability, T/C: stronger effect = lower value
In short: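 Combination screen of spheroid viability in tumor-cell co-cultures with endothelial (HUVEC) and mesenchymal stem cell stroma. Each agent was tested in half-log dilutions, topping at clinical Cmax or at 10 microM without a known Cmax.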

[1] = second compound 0.1 µM, first compound 0.01 µM
[2] = second compound 0.1 µM, first compound 0.0316 µM
[3] = second compound 0.316 µM, first compound 0.01 µM
[4] = second compound 0.316 µM, first compound 0.0316 µM
[5] = second compound 1 µM, first compound 0.01 µM
[6] = second compound 1 µM, first compound 0.0316 µM
[7] = second compound 3.16 µM, first compound 0.01 µM
[8] = second compound 3.16 µM, first compound 0.0316 µM
[9] = second compound 0.1 µM, first compound 0.1 µM
[10] = second compound 0.1 µM, first compound 0.316 µM
[11] = second compound 0.1 µM, first compound 1 µM
[12] = second compound 0.1 µM, first compound 3.16 µM
[13] = second compound 0.316 µM, first compound 0.1 µM
[14] = second compound 0.316 µM, first compound 0.316 µM
[15] = second compound 0.316 µM, first compound 1 µM
[16] = second compound 0.316 µM, first compound 3.16 µM
[17] = second compound 1 µM, first compound 0.1 µM
[18] = second compound 1 µM, first compound 0.316 µM
[19] = second compound 1 µM, first compound 1 µM
[20] = second compound 1 µM, first compound 3.16 µM
[21] = second compound 3.16 µM, first compound 0.1 µM
[22] = second compound 3.16 µM, first compound 0.316 µM
[23] = second compound 3.16 µM, first compound 1 µM
[24] = second compound 3.16 µM, first compound 3.16 µM
[25] = second compound 10 µM, first compound 0.0316 µM
[26] = second compound 10 µM, first compound 0.1 µM
[27] = second compound 10 µM, first compound 0.316 µM
[28] = second compound 10 µM, first compound 1 µM
[29] = second compound 10 µM, first compound 3.16 µM
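Further: compound exposure lasted seven days before readout.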
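Wherever viability, T/C is given: 100% = DMSO vehicle control viability.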

Compound: CC(=O)Nc1cccc(-n2c(=O)n(C3CC3)c(=O)c3c(Nc4ccc(I)cc4F)n(C)c(=O)c(C)c32)c1 + C=CC(=O)N1CCN(c2nc(OCC3CCCN3C)nc3c2CCN(c2cccc4cccc(C)c24)C3)CC1CC#N
- IC50 (second compound 0.0316 µM): 3.55 nM
- IC50 (second compound 0.1 µM): 5.97 nM
- IC50 (second compound 0.316 µM): 4.47 nM
- IC50 (second compound 1 µM): 0.581 nM
- IC50 (second compound 3.16 µM): 0.786 nM
- viability, T/C (second compound 0.0316 µM, first compound 0.0001 µM): 90.6%
- viability, T/C (second compound 0.0316 µM, first compound 0.000316 µM): 76%
- viability, T/C (second compound 0.0316 µM, first compound 0.001 µM): 65.5%
- viability, T/C (second compound 0.0316 µM, first compound 0.00316 µM): 57.8%
- viability, T/C (second compound 0.0316 µM, first compound 0.01 µM): 29.8%
- viability, T/C (second compound 0.0316 µM, first compound 0.0316 µM): 19.4%
- viability, T/C (second compound 0.1 µM, first compound 0.0001 µM): 59.7%
- viability, T/C (second compound 0.1 µM, first compound 0.000316 µM): 62.1%
- viability, T/C (second compound 0.1 µM, first compound 0.001 µM): 75.4%
- viability, T/C (second compound 0.1 µM, first compound 0.00316 µM): 63.7%
- viability, T/C [1]: 38.5%
- viability, T/C [2]: 14.6%
- viability, T/C (second compound 0.316 µM, first compound 0.0001 µM): 80%
- viability, T/C (second compound 0.316 µM, first compound 0.000316 µM): 64%
- viability, T/C (second compound 0.316 µM, first compound 0.001 µM): 82.4%
- viability, T/C (second compound 0.316 µM, first compound 0.00316 µM): 58.1%
- viability, T/C [3]: 28.2%
- viability, T/C [4]: 17.5%
- viability, T/C (second compound 1 µM, first compound 0.0001 µM): 63.1%
- viability, T/C (second compound 1 µM, first compound 0.000316 µM): 42.1%
- viability, T/C (second compound 1 µM, first compound 0.001 µM): 49.9%
- viability, T/C (second compound 1 µM, first compound 0.00316 µM): 40%
- viability, T/C [5]: 31%
- viability, T/C [6]: 11.4%
- viability, T/C (second compound 3.16 µM, first compound 0.0001 µM): 73.5%
- viability, T/C (second compound 3.16 µM, first compound 0.000316 µM): 59.1%
- viability, T/C (second compound 3.16 µM, first compound 0.001 µM): 41%
- viability, T/C (second compound 3.16 µM, first compound 0.00316 µM): 44%
- viability, T/C [7]: 16.7%
- viability, T/C [8]: 7.17%

Compound: CC(=O)OC12COC1CC(O)C1(C)C(=O)C(O)C3=C(C)C(OC(=O)C(O)C(NC(=O)OC(C)(C)C)c4ccccc4)CC(O)(C(OC(=O)c4ccccc4)C21)C3(C)C (stereo not given) + CNCc1ccccc1-c1csc(C(C)Nc2nc(C)nc3cc(OC)c(OC)cc23)c1
- IC50 (second compound 0.1 µM): > 3160 nM
- IC50 (second compound 0.316 µM): > 3160 nM
- IC50 (second compound 1 µM): > 3160 nM
- IC50 (second compound 3.16 µM): 81.6 nM
- IC50 (second compound 10 µM): < 10 nM
- viability, T/C [1]: 96.1%
- viability, T/C [2]: 75%
- viability, T/C [9]: 77%
- viability, T/C [10]: 74.6%
- viability, T/C [11]: 78%
- viability, T/C [12]: 62.5%
- viability, T/C [3]: 76.2%
- viability, T/C [4]: 66.5%
- viability, T/C [13]: 85.8%
- viability, T/C [14]: 71.9%
- viability, T/C [15]: 63.6%
- viability, T/C [16]: 73.9%
- viability, T/C [5]: 80.8%
- viability, T/C [6]: 129%
- viability, T/C [17]: 94.9%
- viability, T/C [18]: 106%
- viability, T/C [19]: 86.2%
- viability, T/C [20]: 68.5%
- viability, T/C [7]: 117%
- viability, T/C [8]: 74.8%
- viability, T/C [21]: 38.7%
- viability, T/C [22]: 38%
- viability, T/C [23]: 21.1%
- viability, T/C [24]: 80.8%
- viability, T/C (second compound 10 µM, first compound 0.01 µM): 43.4%
- viability, T/C [25]: 1.29%
- viability, T/C [26]: 10.6%
- viability, T/C [27]: 8.61%
- viability, T/C [28]: 86.4%
- viability, T/C [29]: 2.58%

Compound: CC1(C)CCC(CN2CCN(c3ccc(C(=O)NS(=O)(=O)c4ccc(NCC5CCOCC5)c([N+](=O)[O-])c4)c(Oc4cnc5[nH]ccc5c4)c3)CC2)=C(c2ccc(Cl)cc2)C1 + COc1cc2nc(C)nc(NC(C)c3cc(N)cc(C(F)(F)F)c3)c2cc1OC1CCOC1
- IC50 (second compound 0.1 µM): > 10000 nM
- IC50 (second compound 0.316 µM): > 10000 nM
- IC50 (second compound 1 µM): 5240 nM
- IC50 (second compound 3.16 µM): 6200 nM
- IC50 (second compound 10 µM): 2660 nM
- viability, T/C [2]: 105%
- viability, T/C [9]: 85.7%
- viability, T/C [10]: 74.5%
- viability, T/C [11]: 82.5%
- viability, T/C [12]: 73.6%
- viability, T/C (second compound 0.1 µM, first compound 10 µM): 101%
- viability, T/C [4]: 116%
- viability, T/C [13]: 92.4%
- viability, T/C [14]: 92.3%
- viability, T/C [15]: 78.9%
- viability, T/C [16]: 76.5%
- viability, T/C (second compound 0.316 µM, first compound 10 µM): 52.5%
- viability, T/C [6]: 73.7%
- viability, T/C [17]: 79.9%
- viability, T/C [18]: 98.9%
- viability, T/C [19]: 80.5%
- viability, T/C [20]: 66.8%
- viability, T/C (second compound 1 µM, first compound 10 µM): 28.6%
- viability, T/C [8]: 63.5%
- viability, T/C [21]: 63.3%
- viability, T/C [22]: 82%
- viability, T/C [23]: 69.5%
- viability, T/C [24]: 73%
- viability, T/C (second compound 3.16 µM, first compound 10 µM): 35.8%
- viability, T/C [25]: 82.1%
- viability, T/C [26]: 60.9%
- viability, T/C [27]: 92.9%
- viability, T/C [28]: 78.6%
- viability, T/C [29]: 45%
- viability, T/C (second compound 10 µM, first compound 10 µM): 37.8%
